Reference: PubChem BioAssay AID1963852 (Molecular Pharmacology Branch, DTP, NCI, 2024)

Tested on: 282377-053-R-J1-PDC complex spheroid viability
Assay: Anticancer human tumor 282377-053-R-J1-PDC patient-derived colon adenocarcinoma cell line growth inhibition [POLQ]
Conditions: for IC50: curve of first compound; for viability, T/C: stronger effect = lower value
Description: Multicellular complex tumor spheroid response to Polymerase (POL) inhibitors (novobiocin, ART-558, RP6685) in combination with a variety of drugs and investigational agents in selected tumor cell lines
The POL inhibitors (novobiocin, ART-558, and RP6685) were evaluated both individually and in combination with standard of care and investigational anticancer small molecules within a complex spheroid model of solid tumors. . Complex spheroids include a stromal component modeled by human endothelial cells (HUVEC) and fibroblasts modeled by human mesenchymal stem cells (MSCs). The concentration ranges selected for each drug and investigational agent were based upon clinically achievable concentrations if the clinical Cmax of the agent was known.
Compounds. The drugs and investigational agents: novobiocin (NSC847541), ART-558 (NSC835418), RP-6685 (NSC848927), peposertib (NSC802822), ceralasertib (NSC780249), elimusertib (NSC800525), camonsertib (NSC841442), AZD-1390 (NSC803789), olaparib (NSC753686), talazoparib (NSC767125), rucaparib (NSC756644), sotorasib (NSC818433), MRTX-1133 (NSC836407), SN-38 (NSC673596), topotecan (NSC609699), epotoside (NSC141540), doxorubicin (NSC123127), gemcitabine (NSC613327), 5-fluorouracil (NSC19893), paclitaxel (NSC125973), vemurafenib (NSC761431), MSA-2 (NSC828583), SN-011 (NSC837082), adavosertib (NSC754352), prexasertib (NSC758257), carboplatin (NSC241240) and oxaliplatin (NSC266046), were obtained from the National Cancer Institute (NCI) Developmental Therapeutics Program Chemical Repository (21). The FDA-approved anticancer drug set is available from the Developmental Therapeutics Program at https://dtp.cancer.gov/organization/dscb/obtaining/. […] The stock solutions were prepared in dimethyl sulfoxide (DMSO, Sigma-Aldrich, St. Louis, MO, cat. D2650), except for the platinum compounds which were prepared in saline (Quality Biological, Gaithersburg, MD, cat. 114-055-101), at 800-fold the tested concentration and stored at -70 degrees C prior to their use. All drugs and investigational agents were tested over a range starting from a high concentration at or near the clinical Cmax and decreasing in half-log increments. If the clinical Cmax for an agent had not been determined, the highest concentration tested was 10 microM, except for SN-38, which was tested at a high concentration of 1 microM.
Cell Culture. All cells were maintained in an incubator at 37 degrees C and 5% CO2 with 95% humidity. The PDC lines were cultured according to standard operating procedures established by the NCI PDMR (https://pdmr.cancer.gov). Table 3 of the manuscript, lists the cell lines along with the number of the three cell types plated to form the mct-spheroids and media for tumor cell growth. After thawing, all PDC lines, except 997537-175-T-J1-PDC and 415267-285-R-J2-PDC, were cultured in Matrigel-coated flasks prepared with a working solution of 1X Ham's F-12 nutrient mix, without supplementation (Thermo Fisher Scientific, cat. 11765054), 100 U/mL penicillin-streptomycin (Thermo Fisher Scientific, cat. 15140122), and 2.5% Matrigel (Corning Inc., Corning, NY, cat. 354248) for the first three passages. The two PDC lines 997537-175-T-J1-PDC and 415267-285-R-J2-PDC were cultured on uncoated flasks. The 857933-349-R-J2-PDC line was cultured in 6C/Colon 1B media containing advanced DMEM/F-12 (Thermo Fisher Scientific, cat. 12634028), 10 mM HEPES (Thermo Fisher Scientific, cat. 15630080), 1X GlutaMAX supplement (Thermo Fisher Scientific, cat. 35050061), 0.1 mg/mL primocin (InvivoGen, San Diego, CA, cat. ant-pm-2), 10% defined fetal bovine serum, heat inactivated (HyClone Laboratories Inc., Logan, UT, cat. SH30070.03HI), 50% L-WRN conditioned media (ATCC, cat. CRL-3276), 1.25 mM N-Acetyl-L-cysteine (Sigma-Aldrich, cat. A9165), 10 mM nicotinamide (Sigma-Aldrich, cat. N0636), 1X B-27 supplement (Thermo Fisher Scientific, cat. 17504044), 1X N-2 supplement (Thermo Fisher Scientific, cat. […]
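Note: spheroids exposed to compounds for seven days.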
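Throughout, for viability, T/C: 100% = DMSO vehicle control viability.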

COc1cccc2c1C(=O)c1c(O)c3c(c(O)c1C2=O)CC(O)(C(=O)CO)CC3OC1CC(N)C(O)C(C)O1 (configuration not stated) + Nc1ccc(C#CCN(C(=O)Cc2ncc(C(F)(F)F)cc2C(F)(F)F)c2ccc(F)cc2)nn1
IC50 (second compound 0.0316 µM): 1.96 µM | IC50 (second compound 0.1 µM): 2.1 µM | IC50 (second compound 0.316 µM): 2.02 µM | IC50 (second compound 1 µM): 1.91 µM | IC50 (second compound 3.16 µM): 1.83 µM | IC50 (second compound 10 µM): 1.91 µM | viability, T/C (second compound 0.0316 µM, first compound 0.0316 µM): 99.2% | viability, T/C (second compound 0.0316 µM, first compound 0.1 µM): 98.9% | viability, T/C (second compound 0.0316 µM, first compound 0.316 µM): 123% | viability, T/C (second compound 0.0316 µM, first compound 1 µM): 94.6% | viability, T/C (second compound 0.0316 µM, first compound 3.16 µM): 17.8% | viability, T/C (second compound 0.0316 µM, first compound 10 µM): 3% | viability, T/C (second compound 0.1 µM, first compound 0.0316 µM): 107% | viability, T/C (second compound 0.1 µM, first compound 0.1 µM): 108% | viability, T/C (second compound 0.1 µM, first compound 0.316 µM): 110% | viability, T/C (second compound 0.1 µM, first compound 1 µM): 110% | viability, T/C (second compound 0.1 µM, first compound 3.16 µM): 17.6% | viability, T/C (second compound 0.1 µM, first compound 10 µM): 2.63% | viability, T/C (second compound 0.316 µM, first compound 0.0316 µM): 92.8% | viability, T/C (second compound 0.316 µM, first compound 0.1 µM): 108% | viability, T/C (second compound 0.316 µM, first compound 0.316 µM): 130% | viability, T/C (second compound 0.316 µM, first compound 1 µM): 103% | viability, T/C (second compound 0.316 µM, first compound 3.16 µM): 15.8% | viability, T/C (second compound 0.316 µM, first compound 10 µM): 3.07% | viability, T/C (second compound 1 µM, first compound 0.0316 µM): 94.2% | viability, T/C (second compound 1 µM, first compound 0.1 µM): 120% | viability, T/C (second compound 1 µM, first compound 0.316 µM): 128% | viability, T/C (second compound 1 µM, first compound 1 µM): 100% | viability, T/C (second compound 1 µM, first compound 3.16 µM): 10.8% | viability, T/C (second compound 1 µM, first compound 10 µM): 4.26% | viability, T/C (second compound 3.16 µM, first compound 0.0316 µM): 104% | viability, T/C (second compound 3.16 µM, first compound 0.1 µM): 108% | viability, T/C (second compound 3.16 µM, first compound 0.316 µM): 123% | viability, T/C (second compound 3.16 µM, first compound 1 µM): 96% | viability, T/C (second compound 3.16 µM, first compound 3.16 µM): 8.6% | viability, T/C (second compound 3.16 µM, first compound 10 µM): 3.58% | viability, T/C (second compound 10 µM, first compound 0.0316 µM): 119% | viability, T/C (second compound 10 µM, first compound 0.1 µM): 142% | viability, T/C (second compound 10 µM, first compound 0.316 µM): 127% | viability, T/C (second compound 10 µM, first compound 1 µM): 105% | viability, T/C (second compound 10 µM, first compound 3.16 µM): 6.84% | viability, T/C (second compound 10 µM, first compound 10 µM): 3.41%
